What all share (test): Kinase Profiler, residual kinase activity
Holding throughout (format): biochemical

For assay [1], the target named is PAK4 (Homo sapiens, UniProt O96013). Particulars: PAK4; inhibitor at 500 nM; read-out: percentage of the remaining kinase activity. The source says: (§1) Kinase Profiler services provided by […]. (http://www.reactionbiology.com) were used to analyze the data of the 9 type-S protein kinase inhibitors against the 40 types of protein kinases.
Assay [2] concerns the target LIMK1 (Homo sapiens, UniProt P53667). Particulars: LIMK1; inhibitor at 500 nM; read-out: percentage of the remaining kinase activity.
Source text: as §1

Assay [3] has as its target JAK2 (Homo sapiens, UniProt O60674). Particulars: JAK2; inhibitor at 500 nM; read-out: percentage of the remaining kinase activity.
Source text: as §1

Assay [4] concerns the target T1, STK4 (Homo sapiens, UniProt Q13043).
T1 construct: purchased Research Biology Corp. (http://www.reactionbiology.com)
T1 sequence (Q13043 1-487): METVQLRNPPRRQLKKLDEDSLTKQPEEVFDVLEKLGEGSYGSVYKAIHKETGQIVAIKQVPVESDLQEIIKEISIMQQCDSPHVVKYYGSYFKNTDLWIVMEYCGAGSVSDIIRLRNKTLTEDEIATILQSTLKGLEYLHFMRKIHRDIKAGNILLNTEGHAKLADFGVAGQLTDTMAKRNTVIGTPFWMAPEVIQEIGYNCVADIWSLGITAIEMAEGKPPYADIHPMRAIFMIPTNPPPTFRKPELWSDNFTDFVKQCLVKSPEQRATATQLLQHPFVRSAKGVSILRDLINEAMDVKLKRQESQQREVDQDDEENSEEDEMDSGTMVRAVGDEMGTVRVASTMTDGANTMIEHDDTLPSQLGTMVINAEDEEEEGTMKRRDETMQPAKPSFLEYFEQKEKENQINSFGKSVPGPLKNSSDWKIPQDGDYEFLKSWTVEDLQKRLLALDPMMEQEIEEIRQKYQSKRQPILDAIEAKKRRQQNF
Particulars: STK4; inhibitor at 500 nM; read-out: percentage of the remaining kinase activity.
Source text: as §1

Assay [5] concerns the target T2, MERTK (Homo sapiens, UniProt Q12866).
T2 sequence (Q12866 21-999): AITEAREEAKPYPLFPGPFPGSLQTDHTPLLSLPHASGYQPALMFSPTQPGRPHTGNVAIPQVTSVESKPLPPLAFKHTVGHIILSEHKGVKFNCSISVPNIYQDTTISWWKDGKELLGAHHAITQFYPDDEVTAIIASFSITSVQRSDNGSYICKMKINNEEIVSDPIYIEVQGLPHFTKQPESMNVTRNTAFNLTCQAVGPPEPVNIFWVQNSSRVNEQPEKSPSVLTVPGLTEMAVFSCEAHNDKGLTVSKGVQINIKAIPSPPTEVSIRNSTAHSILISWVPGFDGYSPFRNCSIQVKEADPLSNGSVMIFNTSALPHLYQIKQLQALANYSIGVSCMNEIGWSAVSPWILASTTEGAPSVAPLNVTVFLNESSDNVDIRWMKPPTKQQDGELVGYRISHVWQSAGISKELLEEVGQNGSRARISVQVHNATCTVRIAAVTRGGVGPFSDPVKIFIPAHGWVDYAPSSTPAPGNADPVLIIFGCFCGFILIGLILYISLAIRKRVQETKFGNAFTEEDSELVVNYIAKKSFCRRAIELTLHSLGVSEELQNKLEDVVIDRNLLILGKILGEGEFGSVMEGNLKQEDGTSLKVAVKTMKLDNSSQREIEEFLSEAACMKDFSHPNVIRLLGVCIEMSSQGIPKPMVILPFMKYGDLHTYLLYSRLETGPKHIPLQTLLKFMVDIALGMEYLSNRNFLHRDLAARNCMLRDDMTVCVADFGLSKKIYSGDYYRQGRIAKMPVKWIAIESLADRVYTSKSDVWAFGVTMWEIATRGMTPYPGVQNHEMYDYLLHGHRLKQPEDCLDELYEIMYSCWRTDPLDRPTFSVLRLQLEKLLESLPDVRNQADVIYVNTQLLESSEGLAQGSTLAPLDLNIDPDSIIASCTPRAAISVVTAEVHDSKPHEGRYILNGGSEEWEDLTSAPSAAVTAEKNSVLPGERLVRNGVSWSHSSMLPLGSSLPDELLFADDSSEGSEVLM
The following applies: MERTK; inhibitor at 500 nM; read-out: percentage of the remaining kinase activity.
Source text: as §1

Assay [6] concerns the target T3, PDPK1 (Homo sapiens, UniProt O15530).
T3 sequence (O15530 1-556): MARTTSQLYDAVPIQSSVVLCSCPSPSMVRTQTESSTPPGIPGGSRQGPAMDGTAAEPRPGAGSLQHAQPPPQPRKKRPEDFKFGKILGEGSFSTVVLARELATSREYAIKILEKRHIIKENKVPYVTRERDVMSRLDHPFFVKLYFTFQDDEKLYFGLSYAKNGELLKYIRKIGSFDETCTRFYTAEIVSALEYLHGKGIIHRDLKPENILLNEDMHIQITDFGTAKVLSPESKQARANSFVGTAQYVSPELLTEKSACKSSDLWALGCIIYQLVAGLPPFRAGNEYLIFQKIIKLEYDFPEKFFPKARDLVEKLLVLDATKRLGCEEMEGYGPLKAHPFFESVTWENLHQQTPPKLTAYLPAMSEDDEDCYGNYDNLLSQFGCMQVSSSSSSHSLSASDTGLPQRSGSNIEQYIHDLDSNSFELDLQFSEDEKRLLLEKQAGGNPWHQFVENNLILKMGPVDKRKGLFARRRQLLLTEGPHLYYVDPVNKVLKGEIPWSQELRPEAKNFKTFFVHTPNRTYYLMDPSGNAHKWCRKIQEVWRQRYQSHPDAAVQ
Particulars: PDPK1; inhibitor at 500 nM; read-out: percentage of the remaining kinase activity.
Source text: as §1

In assay [7] the target is T4, FGFR2 (Homo sapiens, UniProt P21802).
T4 construct: purchased Research Biology Corp. (http://www.reactionbiology.com)
The following applies: FGFR2; inhibitor at 500 nM; read-out: percentage of the remaining kinase activity.
Source text: as §1

Assay [8] addresses CLK1 (Homo sapiens, UniProt P49759). Particulars: CLK1; inhibitor at 500 nM; read-out: percentage of the remaining kinase activity.
Source text: as §1

The target of assay [9] is T5, MAP2K1 (Homo sapiens, UniProt Q02750).
T5 construct: purchased Research Biology Corp. (http://www.reactionbiology.com)
Particulars: MAP2K1; inhibitor at 500 nM; read-out: percentage of the remaining kinase activity.
Source text: as §1

Assay [10] deals with T6, STK16 (Homo sapiens, UniProt O75716).
T6 construct: purchased Research Biology Corp. (http://www.reactionbiology.com)
The following applies: STK16; inhibitor at 500 nM; read-out: percentage of the remaining kinase activity.
Source text: as §1

Assay [11] addresses KDR (Homo sapiens, UniProt P35968). The following applies: KDR; inhibitor at 500 nM; read-out: percentage of the remaining kinase activity.
Source text: as §1

This is an account of results in patent publication US9738660B2, “Selective inhibitors for protein kinases and pharmaceutical composition and use thereof” (National Chiao Tung University, priority 2014, dated 2017).

Sequence of LIMK1 (P53667 whole entry): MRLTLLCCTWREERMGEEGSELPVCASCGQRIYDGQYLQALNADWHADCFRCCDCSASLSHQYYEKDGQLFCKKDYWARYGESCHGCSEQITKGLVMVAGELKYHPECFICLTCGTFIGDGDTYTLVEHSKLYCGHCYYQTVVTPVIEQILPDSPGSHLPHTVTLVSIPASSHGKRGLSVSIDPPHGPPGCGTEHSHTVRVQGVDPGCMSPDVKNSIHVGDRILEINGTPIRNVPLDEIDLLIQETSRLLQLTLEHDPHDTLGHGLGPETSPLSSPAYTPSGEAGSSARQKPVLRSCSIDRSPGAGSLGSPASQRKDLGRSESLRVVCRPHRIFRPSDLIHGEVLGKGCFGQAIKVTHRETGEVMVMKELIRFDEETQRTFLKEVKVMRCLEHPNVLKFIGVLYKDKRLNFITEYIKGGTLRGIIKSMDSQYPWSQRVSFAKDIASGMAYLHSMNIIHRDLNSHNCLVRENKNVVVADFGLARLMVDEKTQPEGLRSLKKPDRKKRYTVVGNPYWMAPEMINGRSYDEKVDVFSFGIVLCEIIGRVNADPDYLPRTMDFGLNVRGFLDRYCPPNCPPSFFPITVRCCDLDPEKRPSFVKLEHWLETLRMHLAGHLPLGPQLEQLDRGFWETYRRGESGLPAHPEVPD
Sequence of PAK4 (O96013 whole entry): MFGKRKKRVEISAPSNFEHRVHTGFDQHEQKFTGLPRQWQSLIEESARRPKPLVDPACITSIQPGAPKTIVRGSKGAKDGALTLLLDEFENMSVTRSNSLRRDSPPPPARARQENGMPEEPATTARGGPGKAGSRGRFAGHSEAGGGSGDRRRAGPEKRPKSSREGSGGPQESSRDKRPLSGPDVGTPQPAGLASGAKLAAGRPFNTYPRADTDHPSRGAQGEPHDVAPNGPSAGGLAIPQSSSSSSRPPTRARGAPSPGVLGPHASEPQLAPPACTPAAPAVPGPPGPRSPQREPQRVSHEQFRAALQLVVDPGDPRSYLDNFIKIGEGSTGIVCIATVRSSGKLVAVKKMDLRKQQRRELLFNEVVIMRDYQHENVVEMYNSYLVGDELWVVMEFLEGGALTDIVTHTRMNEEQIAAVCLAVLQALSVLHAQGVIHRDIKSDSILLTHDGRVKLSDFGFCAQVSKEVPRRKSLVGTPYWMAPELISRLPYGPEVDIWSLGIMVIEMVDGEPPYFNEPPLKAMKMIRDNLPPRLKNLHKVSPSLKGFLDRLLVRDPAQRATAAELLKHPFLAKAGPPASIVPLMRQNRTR
T4 sequence (P21802 22-821): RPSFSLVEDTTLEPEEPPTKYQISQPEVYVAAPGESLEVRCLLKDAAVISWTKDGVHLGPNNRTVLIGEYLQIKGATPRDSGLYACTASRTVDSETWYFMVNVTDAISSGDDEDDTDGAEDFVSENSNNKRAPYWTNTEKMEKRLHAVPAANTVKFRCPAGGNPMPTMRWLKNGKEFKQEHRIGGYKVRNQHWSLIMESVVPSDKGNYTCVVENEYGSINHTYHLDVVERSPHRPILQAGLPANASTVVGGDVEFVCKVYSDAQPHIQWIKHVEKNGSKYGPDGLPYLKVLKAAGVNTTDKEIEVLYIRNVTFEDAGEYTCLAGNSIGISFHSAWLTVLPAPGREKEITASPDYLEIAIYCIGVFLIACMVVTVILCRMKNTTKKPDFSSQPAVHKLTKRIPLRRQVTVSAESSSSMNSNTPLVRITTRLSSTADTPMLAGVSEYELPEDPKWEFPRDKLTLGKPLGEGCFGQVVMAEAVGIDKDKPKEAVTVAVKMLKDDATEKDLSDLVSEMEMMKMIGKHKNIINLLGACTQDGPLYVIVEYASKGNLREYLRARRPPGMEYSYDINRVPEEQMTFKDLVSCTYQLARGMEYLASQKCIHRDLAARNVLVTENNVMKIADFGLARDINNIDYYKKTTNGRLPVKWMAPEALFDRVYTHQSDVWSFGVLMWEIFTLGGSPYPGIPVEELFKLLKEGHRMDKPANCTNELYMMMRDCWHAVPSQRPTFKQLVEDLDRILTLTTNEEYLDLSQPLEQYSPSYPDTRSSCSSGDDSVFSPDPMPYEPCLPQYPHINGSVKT
Sequence of KDR (P35968 20-1356): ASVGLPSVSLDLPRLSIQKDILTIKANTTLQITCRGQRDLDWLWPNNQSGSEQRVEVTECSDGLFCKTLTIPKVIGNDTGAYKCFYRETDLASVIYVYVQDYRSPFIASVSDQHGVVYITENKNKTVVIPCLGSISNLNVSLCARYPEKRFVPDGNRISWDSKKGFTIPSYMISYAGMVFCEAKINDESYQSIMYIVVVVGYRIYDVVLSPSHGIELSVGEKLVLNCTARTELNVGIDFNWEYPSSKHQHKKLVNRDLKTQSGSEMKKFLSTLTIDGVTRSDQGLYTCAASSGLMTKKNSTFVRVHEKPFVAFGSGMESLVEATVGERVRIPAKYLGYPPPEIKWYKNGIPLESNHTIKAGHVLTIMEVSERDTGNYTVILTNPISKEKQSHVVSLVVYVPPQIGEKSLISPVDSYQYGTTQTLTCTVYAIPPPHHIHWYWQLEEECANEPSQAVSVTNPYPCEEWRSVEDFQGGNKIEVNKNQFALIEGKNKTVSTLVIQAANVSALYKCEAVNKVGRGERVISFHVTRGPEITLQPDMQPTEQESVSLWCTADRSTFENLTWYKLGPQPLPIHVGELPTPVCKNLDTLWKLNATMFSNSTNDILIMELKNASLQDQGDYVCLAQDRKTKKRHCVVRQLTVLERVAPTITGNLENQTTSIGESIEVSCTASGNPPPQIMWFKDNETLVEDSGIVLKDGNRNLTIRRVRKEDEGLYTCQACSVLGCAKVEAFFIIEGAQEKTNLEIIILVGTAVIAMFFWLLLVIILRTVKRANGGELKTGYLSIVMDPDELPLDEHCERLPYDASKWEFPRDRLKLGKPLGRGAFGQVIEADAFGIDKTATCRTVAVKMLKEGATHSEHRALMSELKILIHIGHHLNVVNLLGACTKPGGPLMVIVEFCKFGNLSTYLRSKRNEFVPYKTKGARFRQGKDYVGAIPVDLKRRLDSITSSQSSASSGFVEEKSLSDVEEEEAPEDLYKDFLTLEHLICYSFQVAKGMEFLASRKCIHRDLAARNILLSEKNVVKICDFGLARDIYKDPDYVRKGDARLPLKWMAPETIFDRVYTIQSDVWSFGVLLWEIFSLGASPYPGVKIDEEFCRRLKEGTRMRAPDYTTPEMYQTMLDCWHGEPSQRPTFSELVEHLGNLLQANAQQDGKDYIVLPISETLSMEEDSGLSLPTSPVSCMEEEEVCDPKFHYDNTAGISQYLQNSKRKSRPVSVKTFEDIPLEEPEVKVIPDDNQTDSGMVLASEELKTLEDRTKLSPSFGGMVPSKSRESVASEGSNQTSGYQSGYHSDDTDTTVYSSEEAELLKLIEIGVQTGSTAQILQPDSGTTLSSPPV
Sequence of JAK2 (O60674 whole entry): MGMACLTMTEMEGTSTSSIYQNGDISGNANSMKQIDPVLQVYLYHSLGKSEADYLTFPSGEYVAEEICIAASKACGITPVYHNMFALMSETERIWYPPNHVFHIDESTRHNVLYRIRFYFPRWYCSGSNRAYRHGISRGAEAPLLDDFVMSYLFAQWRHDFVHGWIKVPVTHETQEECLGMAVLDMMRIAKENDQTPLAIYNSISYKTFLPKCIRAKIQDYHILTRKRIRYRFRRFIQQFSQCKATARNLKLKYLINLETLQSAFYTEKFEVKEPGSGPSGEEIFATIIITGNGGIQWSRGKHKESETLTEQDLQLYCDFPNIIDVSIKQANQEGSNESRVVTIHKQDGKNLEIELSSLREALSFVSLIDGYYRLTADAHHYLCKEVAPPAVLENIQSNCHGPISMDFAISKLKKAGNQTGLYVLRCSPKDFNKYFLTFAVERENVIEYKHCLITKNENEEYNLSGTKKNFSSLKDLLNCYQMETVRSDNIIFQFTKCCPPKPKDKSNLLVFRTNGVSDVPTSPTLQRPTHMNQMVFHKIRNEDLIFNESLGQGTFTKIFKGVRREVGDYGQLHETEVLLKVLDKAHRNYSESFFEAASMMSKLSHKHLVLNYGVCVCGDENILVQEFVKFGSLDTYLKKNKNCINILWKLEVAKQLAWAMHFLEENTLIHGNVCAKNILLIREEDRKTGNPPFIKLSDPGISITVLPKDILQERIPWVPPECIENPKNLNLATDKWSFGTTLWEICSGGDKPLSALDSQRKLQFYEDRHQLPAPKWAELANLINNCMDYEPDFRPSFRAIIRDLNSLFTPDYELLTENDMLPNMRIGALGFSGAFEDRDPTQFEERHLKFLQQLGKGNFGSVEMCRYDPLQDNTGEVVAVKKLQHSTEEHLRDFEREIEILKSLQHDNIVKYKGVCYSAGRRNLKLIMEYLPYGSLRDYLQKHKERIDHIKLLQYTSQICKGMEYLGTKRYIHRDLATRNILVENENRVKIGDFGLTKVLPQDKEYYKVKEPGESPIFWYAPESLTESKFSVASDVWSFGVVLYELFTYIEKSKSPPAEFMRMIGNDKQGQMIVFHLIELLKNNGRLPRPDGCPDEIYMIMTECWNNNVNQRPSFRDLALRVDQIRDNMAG
T5 sequence (Q02750 whole entry): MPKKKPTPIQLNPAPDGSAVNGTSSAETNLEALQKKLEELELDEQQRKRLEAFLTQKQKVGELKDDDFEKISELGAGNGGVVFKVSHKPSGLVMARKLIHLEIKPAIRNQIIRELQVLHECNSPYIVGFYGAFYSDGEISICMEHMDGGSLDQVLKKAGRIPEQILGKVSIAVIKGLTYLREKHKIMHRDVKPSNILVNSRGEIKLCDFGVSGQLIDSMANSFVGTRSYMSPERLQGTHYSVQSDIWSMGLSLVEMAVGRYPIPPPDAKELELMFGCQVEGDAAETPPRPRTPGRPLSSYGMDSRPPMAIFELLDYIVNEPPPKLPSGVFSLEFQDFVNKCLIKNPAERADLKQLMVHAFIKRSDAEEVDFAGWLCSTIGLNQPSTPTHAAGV

One may read the remaining activity as the signal under treatment as a percentage of the control signal. Regarding `COC1C(N(C)Cc2ccc(-c3ccccc3)cc2)CC2OC1(C)n1c3ccccc3c3c4c(c5c6ccccc6n2c5c31)C(=O)NC4` (centres unmarked) [Compound 9], the remaining activity at 0.5 µM is 91.8% in assay [1]; 56.5% in assay [2]; 4.4% in assay [3]; 1.5% in assay [4]; 52.3% in assay [5]; 2.7% in assay [6]. The remaining activity at 0.5 µM in [7] was 26.5%; in assay [8] it was 73.7%; in assay [9] it was 66.1%; in assay [10], 103%; in assay [11], 43.6%.
